The target of the assay is T1, recombinant full-length USP7 (Homo sapiens, UniProt Q93009).
T1 construct: A 25 μl reaction volume containing recombinant full-length USP7 (62 pM)
Kind of assay: USP7-mediated ubiquitin-rhodamine cleavage assay. The assay is classed as biochemical. To be noted: recombinant full-length USP7 62 pM; ubiquitin-rhodamine 100 nM; 30-minute incubation with compound, 1 hour reaction at room temperature; read-out: Potency: USP7 IC50. The essentials: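 After compound and enzyme (62 pM) sat together 30 min at RT, 100 nM fluorogenic ubiquitin-rhodamine substrate was added for 1 h protected from light. Acetic acid quenched the reaction prior to the fluorescence read.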

Drawing on US10722514B2 (FLX Bio, Inc., priority 2017, dated 2020), this text covers IC50 for 32 compounds.

Bounds are passed on as bounds.

T1 sequence (Q93009 whole entry): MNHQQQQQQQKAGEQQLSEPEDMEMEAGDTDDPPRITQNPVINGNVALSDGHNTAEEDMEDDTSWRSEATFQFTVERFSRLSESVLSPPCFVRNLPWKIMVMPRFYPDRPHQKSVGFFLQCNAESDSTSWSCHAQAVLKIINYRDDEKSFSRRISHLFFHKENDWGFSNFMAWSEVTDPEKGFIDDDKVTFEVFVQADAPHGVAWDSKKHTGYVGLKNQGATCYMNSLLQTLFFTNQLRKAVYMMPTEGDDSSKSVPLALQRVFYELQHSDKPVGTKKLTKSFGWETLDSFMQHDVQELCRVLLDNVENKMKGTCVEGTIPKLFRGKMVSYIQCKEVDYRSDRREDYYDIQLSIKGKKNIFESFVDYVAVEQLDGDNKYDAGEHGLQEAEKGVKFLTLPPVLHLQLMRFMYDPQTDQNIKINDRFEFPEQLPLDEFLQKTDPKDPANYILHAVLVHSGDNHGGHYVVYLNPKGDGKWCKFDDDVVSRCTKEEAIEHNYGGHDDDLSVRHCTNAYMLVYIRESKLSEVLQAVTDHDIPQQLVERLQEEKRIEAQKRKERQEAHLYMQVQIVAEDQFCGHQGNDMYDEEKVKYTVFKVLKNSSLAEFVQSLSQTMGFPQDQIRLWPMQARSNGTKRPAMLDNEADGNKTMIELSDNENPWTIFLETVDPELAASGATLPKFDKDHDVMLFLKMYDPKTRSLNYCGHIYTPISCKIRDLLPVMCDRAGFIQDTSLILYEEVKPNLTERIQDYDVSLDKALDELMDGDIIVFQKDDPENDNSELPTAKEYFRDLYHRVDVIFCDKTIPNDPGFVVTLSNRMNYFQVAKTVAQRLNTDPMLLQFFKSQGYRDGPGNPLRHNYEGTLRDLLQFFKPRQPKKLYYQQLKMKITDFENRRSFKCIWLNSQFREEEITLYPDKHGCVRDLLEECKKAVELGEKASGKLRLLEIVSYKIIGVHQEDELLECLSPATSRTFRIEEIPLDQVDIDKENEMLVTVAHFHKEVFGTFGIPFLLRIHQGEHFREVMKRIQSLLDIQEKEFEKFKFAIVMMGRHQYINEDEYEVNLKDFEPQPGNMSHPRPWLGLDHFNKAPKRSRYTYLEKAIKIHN

For `Cc1cc(Cl)cc(-c2ccnc3cc(CO)sc23)c1OC1CCNCC1` [Example 175, (7-(5-Chloro-3-methyl-2-(piperidin-4-yloxy)phenyl)thieno[3,2-b]pyridin-2-yl)methanol], the IC50 (in general, the midpoint of a concentration-inhibition curve) lay in the range of 1 to 10 µM.
Take `CCN1CCC(Oc2c(C)cc(Cl)cc2-c2ccnc3cc(CN4C(=O)CCC4=O)sc23)CC1` [Example 176, 1-((7-(5-Chloro-2-((1-ethylpiperidin-4-yl)oxy)-3-methylphenyl)thieno[3,2-b]pyridin-2-yl)methyl)pyrrolidine-2,5-dione]: the IC50 is below 1 µM.
Turning to `Cc1cc(Cl)cc(-c2ncnc3cc(CN4C(=O)CCC4=O)sc23)c1OC1CCNCC1` [Example 177, 1-((4-(5-Chloro-3-methyl-2-(piperidin-4-yloxy)phenyl)thieno[3,2-d]pyrimidin-6-yl)methyl)pyrrolidine-2,5-dione], the IC50 is below 1 µM.
In the case of `CN[C@H]1CC[C@H](Oc2c(C)cc(Cl)cc2-c2ccnc3cc(CO)sc23)CC1` [Example 179, (7-(5-Chloro-3-methyl-2-(((1r,4r)-4-(methylamino)cyclohexyl)oxy)phenyl)thieno[3,2-b]pyridin-2-yl)methanol], the IC50 fell in the range of 10 to 30 µM.
Under `Cc1cc(Cl)cc(-c2ccnc3ccsc23)c1OC1CCNCC1` [Example 180, 7-(5-Chloro-3-methyl-2-(piperidin-4-yloxy)phenyl)thieno[3,2-b]pyridine] stands 10 to 30 µM; under `CCC(O)c1cc2ncnc(-c3cc(Cl)cc(C)c3OC3CCNCC3)c2s1` (centres unmarked) [Example 181, 1-(4-(5-Chloro-3-methyl-2-(piperidin-4-yloxy)phenyl)thieno[3,2-d]pyrimidin-6-yl)propan-1-ol], 1 to 10 µM.
`Cc1cc2nccc(-c3cc(C#N)cc(C)c3O[C@H]3CCCNC3)c2s1` [Example 182, (S)-3-Methyl-5-(2-methylthieno[3,2-b]pyridin-7-yl)-4-(piperidin-3-yloxy)benzonitrile]: the IC50 was in the range of 10 to 30 µM.
For `Cc1cc(C#N)cc(-c2ncnc3cc(CO)sc23)c1O[C@H]1CCCNC1` [Example 183, (S)-3-(6-(Hydroxymethyl)thieno[3,2-d]pyrimidin-4-yl)-5-methyl-4-(piperidin-3-yloxy)benzonitrile] the value was 1 to 10 µM.
For `Cc1cc(Cl)cc(-c2ccnc3cc(Cn4c(=O)cc[nH]c4=O)sc23)c1OC1CCNCC1` [Example 184, 3-((7-(5-Chloro-3-methyl-2-(piperidin-4-yloxy)phenyl)thieno[3,2-b]pyridin-2-yl)methyl)pyrimidine-2,4(1H,3H)-dione], the IC50 is below 1 µM.
As to `Cc1cc(Cl)cc(-c2ccnc3cc(CN4C(=O)NC(C)(C)C4=O)sc23)c1OC1CCNCC1` [Example 185, 3-((7-(5-Chloro-3-methyl-2-(piperidin-4-yloxy)phenyl)thieno[3,2-b]pyridin-2-yl)methyl)-5,5-dimethylimidazolidine-2,4-dione], the IC50 was below 1 µM.
Under `CCC(O)c1cc2nccc(-c3cc(Cl)cc(C)c3O[C@H]3CCCN(C)C3)c2s1` (stereo partly drawn) [Example 186, 1-(7-(5-Chloro-3-methyl-2-(((S)-1-methylpiperidin-3-yl)oxy)phenyl)thieno[3,2-b]pyridin-2-yl)propan-1-ol] stands 10 to 30 µM; under `Cc1cc(Cl)cc(-c2ccnc3ccsc23)c1OC1CCN(C)CC1` [Example 187, 7-(5-Chloro-3-methyl-2-((1-methylpiperidin-4-yl)oxy)phenyl)thieno[3,2-b]pyridine], 10 to 30 µM; under `CCC(O)c1cc2nccc(-c3cc(Cl)cc(C)c3OC3CCN(C)CC3)c2s1` (centres unmarked) [Example 188, 1-(7-(5-Chloro-3-methyl-2-((1-methylpiperidin-4-yl)oxy)phenyl)thieno[3,2-b]pyridin-2-yl)propan-1-ol], 1 to 10 µM.
On to `Cc1cc(Cl)cc(-c2ccnc3cc(CO)sc23)c1OCC1CCCNC1` (centres unmarked) [Example 189, (7-(5-Chloro-3-methyl-2-(piperidin-3-ylmethoxy)phenyl)thieno[3,2-b]pyridin-2-yl)methanol], for which the IC50 was 10 to 30 µM.
As to `Cc1cc(Cl)cc(-c2ccnc3cc(CO)sc23)c1OC1C[C@@H]2C[C@H](C1)N2` (stereo partly drawn) [Example 190, (7-(2-(((1R,5S)-6-Azabicyclo[3.1.1]heptan-3-yl)oxy)-5-chloro-3-methylphenyl)thieno[3,2-b]pyridin-2-yl)methanol], the IC50 lay in the range of 10 to 30 µM.
Take `Cc1cc(Cl)cc(-c2ccnc3cc(CO)sc23)c1O[C@@H]1CNC[C@@H]1N=[N+]=[N-]` [Example 191, (7-(2-(((3R,4S)-4-Azidopyrrolidin-3-yl)oxy)-5-chloro-3-methylphenyl)thieno[3,2-b]pyridin-2-yl)methanol]: the IC50 lay within 1 to 10 µM.
Consider `Cc1cc(Cl)cc(-c2ccnc3cc(CO)sc23)c1O[C@@H]1C[C@H]2CC[C@@H](C1)N2` [Example 192, (7-(2-(((1R,3S,5S)-8-Azabicyclo[3.2.1]octan-3-yl)oxy)-5-chloro-3-methylphenyl)thieno[3,2-b]pyridin-2-yl)methanol], for which the IC50 fell in the range of 1 to 10 µM.
Under `Cc1cc(Cl)cc(-c2ccnc3cc(CO)sc23)c1O[C@H]1C[C@H]2CC[C@@H](C1)N2` [Example 193, (7-(2-(((1R,3r,5S)-8-Azabicyclo[3.2.1]octan-3-yl)oxy)-5-chloro-3-methylphenyl)thieno[3,2-b]pyridin-2-yl)methanol] stands 1 to 10 µM; under `Cc1cc(Cl)cc(-c2ccnc3cc(CN4C(=O)CCC4=O)sc23)c1OC1CCN(CC(F)(F)F)CC1` [Example 194, 1-((7-(5-Chloro-3-methyl-2-((1-(2,2,2-trifluoroethyl)piperidin-4-yl)oxy)phenyl)thieno[3,2-b]pyridin-2-yl)methyl)pyrrolidine-2,5-dione], 1 to 10 µM; under `Cc1cc(Cl)cc(-c2ccnc3cc(Cn4c(=O)ccn(C)c4=O)sc23)c1OC1CCNCC1` [Example 195, 3-((7-(5-Chloro-3-methyl-2-(piperidin-4-yloxy)phenyl)thieno[3,2-b]pyridin-2-yl)methyl)-1-methylpyrimidine-2,4(1H,3H)-dione], below 1 µM.
For the compound `Cc1cc(Cl)cc(-c2ccnc3cc(CO)sc23)c1O[C@@H]1CCCC[C@@H]1N` [Example 196, (7-(2-(((1R,2S)-2-Aminocyclohexyl)oxy)-5-chloro-3-methylphenyl)thieno[3,2-b]pyridin-2-yl)methanol], the IC50 is above 30 µM.
Under `CCC(O)c1cc2nccc(-c3cc(Cl)cc(C)c3OC3CC4CC3CN4)c2s1` (centres unmarked) [Example 197, 1-(7-(2-((2-Azabicyclo[2.2.1]heptan-5-yl)oxy)-5-chloro-3-methylphenyl)thieno[3,2-b]pyridin-2-yl)propan-1-ol] stands 1 to 10 µM; under `Cc1cc(Cl)cc(-c2ccnc3ccsc23)c1OC1CCC(=O)NC1` (centres unmarked) [Example 198, 5-(4-Chloro-2-methyl-6-(thieno[3,2-b]pyridin-7-yl)phenoxy)piperidin-2-one], above 30 µM.
For `CCC(O)c1cc2nccc(-c3cc(Cl)cc(C)c3O[C@H]3C[C@H]4CC[C@@H](C3)N4)c2s1` (stereo partly drawn) [Example 199, 1-(7-(2-(((1R,3r,5S)-8-Azabicyclo[3.2.1]octan-3-yl)oxy)-5-chloro-3-methylphenyl)thieno[3,2-b]pyridin-2-yl)propan-1-ol] the value was 1 to 10 µM.
For `Cc1cc(Cl)cc(-c2ccnc3cc(CO)sc23)c1OC1CCCNC1=O` (centres unmarked) [Example 200, 3-(4-Chloro-2-(2-(hydroxymethyl)thieno[3,2-b]pyridin-7-yl)-6-methylphenoxy)piperidin-2-one], the IC50 was above 30 µM.
Take `Cc1cc(Cl)cc(-c2ccnc3cc(CN4C(=O)CCC4C(F)(F)F)sc23)c1OC1CCNCC1` (centres unmarked) [Example 201, 1-((7-(5-Chloro-3-methyl-2-(piperidin-4-yloxy)phenyl)thieno[3,2-b]pyridin-2-yl)methyl)-5-(trifluoromethyl)pyrrolidin-2-one]: the IC50 was in the range of 1 to 10 µM.
Consider `Cc1cc(Cl)cc(-c2ncnc3cc(CN4C(=O)c5ccccc5C4=O)sc23)c1OC1CCNCC1` [Example 202, 2-((4-(5-Chloro-3-methyl-2-(piperidin-4-yloxy)phenyl)thieno[3,2-d]pyrimidin-6-yl)methyl)isoindoline-1,3-dione], for which the half-maximal inhibitory concentration (IC50) was below 1 µM.
For the compound `Cc1cc(Cl)cc(-c2ccnc3cc(CN4C(=O)CCN(C)C4=O)sc23)c1OC1CCNCC1` [Example 203, 3-((7-(5-Chloro-3-methyl-2-(piperidin-4-yloxy)phenyl)thieno[3,2-b]pyridin-2-yl)methyl)-1-methyldihydropyrimidine-2,4(1H,3H)-dione], the IC50 was below 1 µM.
In the case of `CCC(O)c1cc2nccc(-c3cc(Cl)cc(C)c3OCC3CCNCC3)c2s1` (centres unmarked) [Example 204, 1-(7-(5-Chloro-3-methyl-2-(piperidin-4-ylmethoxy)phenyl)thieno[3,2-b]pyridin-2-yl)propan-1-ol], the 50% inhibitory concentration (IC50) is 10 to 30 µM.
On to `Cc1cc(Cl)cc(-c2ccnc3cc(CN4C(=O)CCC4=O)sc23)c1OC1CCNC(C)(C)C1` (centres unmarked) [Example 205, 1-((7-(5-Chloro-2-((2,2-dimethylpiperidin-4-yl)oxy)-3-methylphenyl)thieno[3,2-b]pyridin-2-yl)methyl)pyrrolidine-2,5-dione], for which the IC50 is below 1 µM.
For the compound `Cc1cc(Cl)cc(-c2ccnc3cc(CN4C(=O)CCC4=O)sc23)c1O[C@H]1[C@@H]2CNC[C@H]1C2` [Example 206, 1-((7-(2-(((1R,5S,6s)-3-Azabicyclo[3.1.1]heptan-6-yl)oxy)-5-chloro-3-methylphenyl)thieno[3,2-b]pyridin-2-yl)methyl)pyrrolidine-2,5-dione], the IC50 is below 1 µM.
As for `Cc1cc(Cl)cc(-c2ccnc3cc(CN4C(=O)CCC4=O)sc23)c1OC1CCN(C2COC2)CC1` [Example 207, 1-((7-(5-Chloro-3-methyl-2-((1-(oxetan-3-yl)piperidin-4-yl)oxy)phenyl)thieno[3,2-b]pyridin-2-yl)methyl)pyrrolidine-2,5-dione], the IC50 was in the range of 1 to 10 µM.
